Assays:
Assay type in all cases: in vivo, human
[1] = system: patients with irritable bowel syndrome (IBS); assay: Abdominal discomfort score in patients with irritable bowel syndrome; conditions: for Abdominal discomfort score, Mean ± SD: IBS patients
Experimental: (§1) Patients with irritable bowel syndrome (IBS) were randomly allocated to the following two treatment groups. • Group 1: Test substance (13,14-dihydro-15-keto-16,16-difluoro-PGE1) 48 μg total (24 μg/breakfast+24 μg/dinner) • Group 2: Matching placebo (placebo/breakfast+placebo/dinner)
(§2) Each group underwent two weeks washout period and then began to administer oral test substance (capsules) or placebo (capsules) daily for 4 weeks. Test substance or placebo was taken two times a day (b.i.d) at breakfast with food and at least 8 ounces of water and at dinner with food and at least 8 ounces of water. Patients were asked to evaluate abdominal discomfort upon waking in the morning, using a 5-point scale (Score: 0=absent, 1=mild, 2=moderate, 3=severe, 4=very severe) at 4 weeks after the initiation of the treatments.

[2] = system: patients with irritable bowel syndrome (IBS); assay: Abdominal bloating score in patients with irritable bowel syndrome; conditions: for Abdominal bloating score, Mean ± SD: IBS patients
Experimental: as §1
as §2, with “The patients” for “Patients”, “bloating” for “discomfort”

[3] = system: patients with occasional constipation; assay: Abdominal discomfort score in patients with occasional constipation; conditions: for Abdominal discomfort score, Mean ± SD: patients with constipation, oral capsules 48 μg total daily (24 μg b.i.d.), 5-point scale 0-4, p < 0.05 vs placebo
Experimental: Patients with occasional constipation were randomly allocated to the following two treatment groups. • Group 1: Test substance (13,14-dihydro-15-keto-16,16-difluoro-PGE1) 48 μg total (24 μg/breakfast+24 μg/dinner) • Group 2: Matching placebo (placebo/breakfast+placebo/dinner) Each group underwent two weeks washout period and then began to administer oral test substance (capsules) or placebo (capsules) daily for 4 weeks. During the washout period, the patient's bowel habit was documented to confirm the existence of constipation. Constipation is defined as, on average, less than three spontaneous bowel movements per week. All existing laxative medication was withdrawn at the start of the washout period and the patients were instructed not to change their diet or lifestyle during the study.
Test substance or placebo was taken orally for a total treatment period of 4 weeks; it was taken two times a day (b.i.d) at breakfast with food and at least 8 ounces of water and at dinner with food and at least 8 ounces of water. […]

[4] = system: patients with irritable bowel syndrome (IBS) exhibiting dyschezia; assay: Spontaneous bowel movement frequency in patients with IBS exhibiting dyschezia; conditions: for Spontaneous Bowel Movement Frequency Rates, Mean ± SD: IBS patients exhibiting dyschezia
Experimental: Each group underwent two weeks washout period and then began to administer oral test substance (capsules) or placebo (capsules) daily for 4 weeks. Test substance or placebo was taken two times a day (b.i.d) at breakfast with food and at least 8 ounces of water and at dinner with food and at least 8 ounces of water. After 3 consecutive days of not having spontaneous bowel movement, the investigator could prescribe to the patient 10 mg bisacodyl suppository as a rescue medication. If this was not effective, Fleet® enema could be used. During the study period, each patient documented bowel activity. A spontaneous bowel movement was defined as any bowel movement except for that occurred within 24 hours after the rescue medication. Frequency of spontaneous bowel movements at Baseline, Weeks 1, 2, 3 and 4 were analyzed.

[5] = Baseline, 5-point scale 0=absent to 4=very severe
[6] = Week 4, oral capsules 48 μg total daily (24 μg b.i.d.), 5-point scale 0-4, p < 0.01 vs placebo
[7] = oral 48 μg total daily for 4 weeks

Structure (SMILES): CCCCC(F)(F)C(=O)CCC1C(O)CC(=O)C1CCCCCCC(=O)O (stereo not shown) [Test Substance, 13,14-dihydro-15-keto-16,16-difluoro-PGE1]
- Abdominal discomfort score, Mean ± SD [1, 5]: 2.25 ± 0.803
- Abdominal discomfort score, Mean ± SD [1, 6]: 1.48 ± 1.029
- Effect on abdominal discomfort in patients with IBS [1, 7]: significantly improved the abdominal discomfort
- Abdominal bloating score, Mean ± SD [2, 5]: 2.50 ± 0.916 (32)
- Abdominal bloating score, Mean ± SD [2, 6]: 1.74 ± 0.999 (31)
- Effect on abdominal bloating in patients with IBS [2, 7]: significantly improved the abdominal bloating
- Abdominal discomfort score, Mean ± SD ([3]; Week 2): 1.09 ± 1.047 (116)
- Abdominal discomfort score, Mean ± SD ([3]; Week 3): 1.27 ± 1.057 (117)
- Abdominal discomfort score, Mean ± SD ([3]; Week 4): 1.22 ± 1.060 (117)
- Effect on abdominal discomfort in patients with constipation [3, 7]: significantly improved the abdominal discomfort
- Spontaneous Bowel Movement Frequency Rates, Mean ± SD ([4]; Baseline): 1.43 ± 0.773 (32)
- Spontaneous Bowel Movement Frequency Rates, Mean ± SD ([4]; Week 1, oral capsules 48 μg total daily (24 μg b.i.d.), p < 0.01 vs placebo): 6.50 ± 4.108 (32)
- Spontaneous Bowel Movement Frequency Rates, Mean ± SD ([4]; Week 2, oral capsules 48 μg total daily (24 μg b.i.d.), p < 0.01 vs placebo): 5.58 ± 4.003 (32)
- Spontaneous Bowel Movement Frequency Rates, Mean ± SD ([4]; Week 3, oral capsules 48 μg total daily (24 μg b.i.d.), p < 0.01 vs placebo): 5.93 ± 4.775 (32)
- Spontaneous Bowel Movement Frequency Rates, Mean ± SD ([4]; Week 4, oral capsules 48 μg total daily (24 μg b.i.d.), p < 0.05 vs placebo): 5.17 ± 4.333 (32)
- Effect on spontaneous bowel movement frequency in patients with IBS exhibiting dyschezia [4, 7]: significantly improved the spontaneous bowel movement frequency

— patent publication US7795312B2, “Method for treating abdominal discomfort” (Sucampo AG, priority 2002, dated 2010)
